# Entries after “also recorded” stand apart in the source; their conditions may differ.
# Columns and labels:
# [1] = system: human liver microsomes (HLMs); test: Metabolic stability of seven diterpenoids in human liver microsomes; type: in vitro ADME; conditions: 10 µM, 0.5 mg/mL HLMs, 37 °C, 60 min
# Description: For metabolism profiling, 10 µM of each of the seven compounds isolated from C. cassia bark was added to 0.5 mg/mL of pooled HLMs and 0.1 M potassium phosphate buffer (pH 7.4). The HLMs were then preincubated at 37 °C for 1 min. After adding NGS, the reaction mixture was incubated at 37 °C for 60 min. After the 60 min incubation period, 50 µL of the reaction mixture was transferred to a new tube, and 50 µL of 100% ACN containing 0.1% formic acid and tolbutamide (internal standard) was added to terminate the reaction. The mixture was then vortexed, followed by centrifugation at 15,700× g (13,000 rpm) for 10 min (Eppendorf AG, Hamburg, Germany). Finally, 90 µL of the supernatant was transferred to a vial and injected into a C18 column for LC–MS/MS analysis.
# The metabolism screening of the seven compounds was performed using an HPLC system (Thermo Fisher Scientific, Bremen, Germany) equipped with an HPG-3200SD standard binary pump, a WPS-3000 TRS analytical autosampler, and a TCC-3000 SD column compartment. The HPLC system was coupled with an HR-MS (Q-Exactive Focus Quadrupole-Orbitrap MS; Thermo Fisher Scientific, Waltham, MA, USA) at the Mass Spectrometry Convergence Research Center. The full MS resolution and scan ranges were 70,000 and 60–900 m/z, respectively. The MS/MS resolution was 35,000. The mass spectra were obtained in negative ion electrospray mode. A heated electrospray ionization (HESI-II) probe was used as an ion generator, with nitrogen as the sheath gas at 35 aux units and auxiliary gas at 12 aux units. The mass spectrometer was operated in negative ionization mode. The other parameters were as follows: spray voltage, 3.5 kV; capillary temperature, 320 °C; S-lens radio frequency level, 50; and aux gas heater temperature, 400 °C.
# The mobile phase consisted of 100% water with 0.1% formic acid (mobile phase A) and 100% ACN with 0.1% formic acid (mobile phase B). For metabolic stability, the gradient conditions were set as follows: 5% of B at 0.5–2.0 min, 5–50% of B at 2.0–4.5 min, 50% of B at 4.5–7.0 min, and 50–5% of B at 7.0–10.0 min at 40 °C with a flow rate of 0.2 mL/min. For metabolite identification, the gradient conditions were as follows: 10% of B at 0–5 min, 10–55% of B at 5–15 min, 55% of B at 15–23 min, and 55–10% of B at 23–30 min with a flow rate of 0.25 mL/min. Chromatographic separation was performed using a Kinetex C18 column (150 × 2.1 mm, 2.6 μm, XB-C18 100 Å, S/No: H19-070128; Phenomenex, Torrance, CA, USA). Data were analyzed using Xcalibur version 4.0 software (Thermo Fisher Scientific, Waltham, MA, USA).
# To confirm their metabolic stability, seven diterpenoids (AHC, anhydrocinnzeylanol, cinncassiol A, cinncassiol B, cinnzeylanol, cinnzeylanone, and cinnzeylanine) derived from the bark of C. cassia were incubated with HLMs in the presence of the NGS for 60 min (Figure 1B). The metabolic stability of each compound was determined according to the ratio of the peak area at 60 min to that at 0 min. […] Therefore, we identified the metabolites of AHC produced in HLMs.
# [2] = system: human liver microsomes (HLMs); test: Identification of phase I metabolites of AHC in HLMs; type: in vitro ADME; conditions: 10 µM AHC, 1 mg/mL pooled HLMs, with NGS, 60 min
# Description: To identify AHC metabolites, 10 µM AHC was incubated with 1 mg/mL pooled HLMs in 0.1 M potassium phosphate buffer (pH 7.4) at 37 °C for 60 min. The reactions were initiated by adding NGS to obtain a final incubation volume of 200 µL. All experiments were conducted in triplicate. The reaction was terminated by adding 400 µL of 100% ACN, and the mixture was vortexed and then centrifuged for 10 min at 15,700× g. Next, the supernatant (550 µL) was transferred to a new tube and dried using a speed-vac concentrator with a cold trap (Labconco, Kansas, MO, USA). Subsequently, the dried samples were reconstituted in 100 µL of 20% MeOH containing 0.1% formic acid before centrifugation at 15,700× g for 10 min. Finally, the mixture was injected into a liquid chromatograph with a tandem mass spectrometer for analysis. […]
# The mobile phase consisted of 100% water with 0.1% formic acid (mobile phase A) and 100% ACN with 0.1% formic acid (mobile phase B). […] Data were analyzed using Xcalibur version 4.0 software (Thermo Fisher Scientific, Waltham, MA, USA).
# To identify the phase I metabolites of AHC in HLMs, 10 µM AHC was incubated in pooled HLMs without or with the NGS for 60 min. […] The extracted ion chromatograms of the generated AHC metabolites are shown in Figure 2A,B. AHC was detected as a deprotonated ion, [M − H]^−, at m/z 407 and 15.6 min in the negative ion mode. […]
# CYPs = test: Metabolism of AHC in HLMs with SKF-525A, a nonselective CYP inhibitor; type: in vitro ADME, human; conditions: 10 µM AHC, 1 mg/mL HLMs, NGS, 60 min, depending on SKF-525A concentration
# Description: To investigate CYP-mediated metabolism, 10 µM AHC was mixed with 1 mg/mL pooled HLMs and 0.1 M potassium phosphate buffer (pH 7.4). Then, SKF-525A, a general inhibitor of CYPs, was added at concentrations of 0.5, 1, and 5 mM. The reactions were initiated with the addition of NGS at […] for 60 min. After 60 min, the reactions were terminated by adding 400 µL of 100% acetonitrile. The mixtures were then centrifuged at 15,700× g for 10 min. Subsequently, 550 µL of supernatant was dried in a vacuum concentrator. The residue was dissolved in 100 µL of 20% MeOH (0.1% formic acid), and 5 µL of this sample was injected into a C18 column for LC–MS/MS analysis.
# To confirm the metabolism of AHC by CYP enzymes, AHC was incubated in HLMs with SKF-525A, i.e., a nonspecific CYP inhibitor (Figure S7). […] Consequently, as the metabolism of AHC was inhibited by SKF-525A treatment, the production of all metabolites was reduced in an SKF-525A concentration-dependent manner.
compound,measurement,setting,value
"CC(=O)O[C@@H]1[C@@H](C)CC[C@]2(O)[C@]3(C)CC(=O)O[C@]12[C@@]1(O)C(C)=C(C(C)C)C[C@@]31O [AHC, anhydrocinnzeylanine]",metabolic stability in HLMs (in words),[1]; NGS,most rapid metabolization; also recorded: unique reduction in metabolic stability; also recorded: highest metabolic rate
same,parent remaining after metabolism in HLMs (metabolized to),[1]; β-NADPH,3%
same,number of metabolites produced in HLMs,[2],20
same,residual amount of AHC after reaction with SKF-525A,CYPs,significantly increased

# Reference: paper PMC8400920, “Metabolism of Diterpenoids Derived from the Bark of Cinnamomum cassia in Human Liver Microsomes” (Pharmaceutics, 2021)
